Reference: patent publication US8952024B2, “Herbicidal pyrimidone derivatives” (E I du Pont de Nemours and Company, priority 2009, dated 2015)

What was measured:
Type in all cases: in vivo
[1] = tested on: Italian ryegrass (Lolium multiflorum); assay: Test B pre-/postemergence plant response
Outline: (§1)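 Seeds were sown in loam soil/sand blend and treated preemergence with compound in non-phytotoxic solvent mixture containing surfactant; postemergence sprays, same formulation, went onto plants 2 to 18 cm (1- to 4-leaf stage) in peat-based planting medium. Greenhouse 13 to 15 days, then visual rating versus untreated controls, 0 (no effect) to 100 (complete control).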

[2] = tested on: Surinam grass (Brachiaria decumbens); assay: Test B pre-/postemergence plant response
Outline: as §1

[3] = tested on: bermudagrass (Cynodon dactylon); assay: Test B pre-/postemergence plant response
Outline: as §1

[4] = tested on: blackgrass (Alopecurus myosuroides); assay: Test B pre-/postemergence plant response
Outline: as §1

corn (Zea mays) = assay: Test B pre-/postemergence plant response
Outline: as §1

[5] = tested on: johnsongrass (Sorghum halepense); assay: Test B pre-/postemergence plant response
Outline: as §1

[6] = tested on: lambsquarters (Chenopodium album); assay: Test B pre-/postemergence plant response
Outline: as §1

[7] = tested on: large crabgrass (Digitaria sanguinalis); assay: Test B pre-/postemergence plant response
Outline: as §1

[8] = tested on: ragweed (common ragweed, Ambrosia elatior); assay: Test B pre-/postemergence plant response
Outline: as §1

soybean (Glycine max) = assay: Test B pre-/postemergence plant response
Outline: as §1

[9] = tested on: velvetleaf (Abutilon theophrasti); assay: Test B pre-/postemergence plant response
Outline: as §1

wild oat (Avena fatua) = assay: Test B pre-/postemergence plant response
Outline: as §1

[10] = tested on: woolly cupgrass (Eriochloa villosa); assay: Test B pre-/postemergence plant response
Outline: as §1

[11] = tested on: yellow nutsedge (Cyperus esculentus); assay: Test B pre-/postemergence plant response
Outline: as §1

[12] = tested on: canarygrass (Phalaris minor); assay: Test B postemergence plant response
Outline: (§2)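 Plants grown in peat/vermiculite medium were sprayed postemergence at 2–18 cm height (1- to 4-leaf stage). After 13–15 days in the greenhouse, response was rated visually against untreated controls on a 0–100 scale (0 no effect, 100 complete control).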

[13] = tested on: chickweed (Stellaria media); assay: Test B postemergence plant response
Outline: as §2

[14] = tested on: windgrass (Apera spica-venti); assay: Test B postemergence plant response
Outline: as §2

[15] = tested on: winter barley (Hordeum vulgare); assay: Test B postemergence plant response
Outline: as §2

[16] = 62 g ai/ha, postemergence, 0 is no effect, 100 is complete control, 13 to 15 days

COCCn1c(-c2ccsc2)ncc(C(=O)C2=C(O)CCCC2=O)c1=O [Compound 97, 5-[(2-hydroxy-6-oxo-1-cyclohexen-1-yl)carbonyl]-3-(2-methoxyethyl)-2-(3-thienyl)-4(3H)-pyrimidinone]
Ryegrass, Italian plant response rating (0 to 100 scale) [1, 16]: 0
pest or weed control at 31 g/ha ([1]; Lolium multiflorum, post-emergence, 31 g ai/ha, postemergence, scale 0 to 100, 0 is no effect, 100 is complete control, read-out: Plant response rating, Ryegrass, Italian): 0%
pest or weed control at 250 g/ha ([1]; Lolium multiflorum, post-emergence, Postemergence, 250 g ai/ha, scale 0 to 100 (0 no effect, 100 complete control), read-out: Plant response rating, Ryegrass, Italian): 5%
Surinam Grass plant response rating (0 to 100 scale) [2, 16]: 75
pest or weed control at 31 g/ha ([2]; Urochloa decumbens, post-emergence, 31 g ai/ha, postemergence, scale 0 to 100, 0 is no effect, 100 is complete control, read-out: Plant response rating, Surinam Grass): 65%
pest or weed control at 250 g/ha ([2]; Urochloa decumbens, post-emergence, Postemergence, 250 g ai/ha, scale 0 to 100 (0 no effect, 100 complete control), read-out: Plant response rating, Surinam Grass): 85%
Bermudagrass plant response rating (0 to 100 scale) [3, 16]: 95
pest or weed control at 31 g/ha ([3]; Cynodon dactylon, post-emergence, 31 g ai/ha, postemergence, scale 0 to 100, 0 is no effect, 100 is complete control, read-out: Plant response rating, Bermudagrass): 95%
pest or weed control at 125 g/ha ([3]; Cynodon dactylon, post-emergence, Postemergence, 125 g ai/ha, visual rating after 13 to 15 days, scale 0 (no effect) to 100 (complete control)): 95%
pest or weed control at 250 g/ha ([3]; Cynodon dactylon, post-emergence, Postemergence, 250 g ai/ha, scale 0 to 100 (0 no effect, 100 complete control), read-out: Plant response rating, Bermudagrass): 98%
Blackgrass plant response rating (0 to 100 scale) [4, 16]: 20
pest or weed control at 31 g/ha ([4]; Alopecurus myosuroides, post-emergence, 360 h, 31 g ai/ha, postemergence, scale 0 to 100, 0 is no effect, 100 is complete control, read-out: Plant response rating, Blackgrass): 5%
pest or weed control at 125 g/ha ([4]; Alopecurus myosuroides, post-emergence, 360 h, Postemergence, 125 g ai/ha, visual rating after 13 to 15 days, scale 0 (no effect) to 100 (complete control)): 30%
pest or weed control at 250 g/ha ([4]; Alopecurus myosuroides, post-emergence, 360 h, Postemergence, 250 g ai/ha, scale 0 to 100 (0 no effect, 100 complete control), read-out: Plant response rating, Blackgrass): 50%
Corn plant response rating (0 to 100 scale) (corn (Zea mays); [16]): 40
Corn plant response rating (crop injury, 0 = no effect, 100 = complete kill) at 31 g/ha (corn (Zea mays); Zea mays, post-emergence, 31 g ai/ha, postemergence, scale 0 to 100, 0 is no effect, 100 is complete control): 20%
Corn plant response rating (crop injury, 0 = no effect, 100 = complete kill) at 125 g/ha (corn (Zea mays); Zea mays, post-emergence, Postemergence, 125 g ai/ha, visual rating after 13 to 15 days, scale 0 (no effect) to 100 (complete control)): 60%
Corn plant response rating (crop injury, 0 = no effect, 100 = complete kill) at 250 g/ha (corn (Zea mays); Zea mays, post-emergence, Postemergence, 250 g ai/ha, scale 0 to 100 (0 no effect, 100 complete control)): 75%
Johnsongrass plant response rating (0 to 100 scale) [5, 16]: 55
pest or weed control at 31 g/ha ([5]; Sorghum halepense, post-emergence, 31 g ai/ha, postemergence, scale 0 to 100, 0 is no effect, 100 is complete control, read-out: Plant response rating, Johnsongrass): 15%
pest or weed control at 250 g/ha ([5]; Sorghum halepense, post-emergence, Postemergence, 250 g ai/ha, scale 0 to 100 (0 no effect, 100 complete control), read-out: Plant response rating, Johnsongrass): 85%
Lambsquarters plant response rating (0 to 100 scale) [6, 16]: 100
pest or weed control at 31 g/ha ([6]; Chenopodium album, post-emergence, 31 g ai/ha, postemergence, scale 0 to 100, 0 is no effect, 100 is complete control, read-out: Plant response rating, Lambsquarters): 90%
pest or weed control at 250 g/ha ([6]; Chenopodium album, post-emergence, Postemergence, 250 g ai/ha, scale 0 to 100 (0 no effect, 100 complete control), read-out: Plant response rating, Lambsquarters): 100%
Crabgrass, Large plant response rating (0 to 100 scale) [7, 16]: 80
pest or weed control at 31 g/ha ([7]; Digitaria sanguinalis, post-emergence, 31 g ai/ha, postemergence, scale 0 to 100, 0 is no effect, 100 is complete control, read-out: Plant response rating, Crabgrass, Large): 75%
pest or weed control at 125 g/ha ([7]; Digitaria sanguinalis, post-emergence, Postemergence, 125 g ai/ha, visual rating after 13 to 15 days, scale 0 (no effect) to 100 (complete control)): 85%
pest or weed control at 250 g/ha ([7]; Digitaria sanguinalis, post-emergence, Postemergence, 250 g ai/ha, scale 0 to 100 (0 no effect, 100 complete control), read-out: Plant response rating, Crabgrass, Large): 95%
Ragweed plant response rating (0 to 100 scale) [8, 16]: 98
pest or weed control at 31 g/ha ([8]; Ambrosia artemisiifolia, post-emergence, 360 h, 31 g ai/ha, postemergence, scale 0 to 100, 0 is no effect, 100 is complete control, read-out: Plant response rating, Ragweed): 85%
pest or weed control at 250 g/ha ([8]; Ambrosia artemisiifolia, post-emergence, 360 h, Postemergence, 250 g ai/ha, scale 0 to 100 (0 no effect, 100 complete control), read-out: Plant response rating, Ragweed): 100%
Soybean plant response rating (0 to 100 scale) (soybean (Glycine max); [16]): 80
plant injury at 31 g/ha (soybean (Glycine max); Glycine max, post-emergence, 31 g ai/ha, postemergence, scale 0 to 100, 0 is no effect, 100 is complete control, read-out: Plant response rating, Soybean): 70%
plant injury at 250 g/ha (soybean (Glycine max); Glycine max, post-emergence, Postemergence, 250 g ai/ha, scale 0 to 100 (0 no effect, 100 complete control), read-out: Plant response rating, Soybean): 100%
Velvetleaf plant response rating (0 to 100 scale) [9, 16]: 100
pest or weed control at 31 g/ha ([9]; Abutilon theophrasti, post-emergence, 360 h, 31 g ai/ha, postemergence, scale 0 to 100, 0 is no effect, 100 is complete control, read-out: Plant response rating, Velvetleaf): 100%
pest or weed control at 250 g/ha ([9]; Abutilon theophrasti, post-emergence, 360 h, Postemergence, 250 g ai/ha, scale 0 to 100 (0 no effect, 100 complete control), read-out: Plant response rating, Velvetleaf): 100%
Oat, Wild plant response rating (0 to 100 scale) (wild oat (Avena fatua); [16]): 5
pest or weed control at 31 g/ha (wild oat (Avena fatua); Avena fatua, post-emergence, 31 g ai/ha, postemergence, scale 0 to 100, 0 is no effect, 100 is complete control, read-out: Plant response rating, Oat, Wild): 0%
pest or weed control at 250 g/ha (wild oat (Avena fatua); Avena fatua, post-emergence, Postemergence, 250 g ai/ha, scale 0 to 100 (0 no effect, 100 complete control), read-out: Plant response rating, Oat, Wild): 10%
Cupgrass, Woolly plant response rating (0 to 100 scale) [10, 16]: 60
pest or weed control at 31 g/ha ([10]; Eriochloa villosa, post-emergence, 31 g ai/ha, postemergence, scale 0 to 100, 0 is no effect, 100 is complete control, read-out: Plant response rating, Cupgrass, Woolly): 55%
pest or weed control at 125 g/ha ([10]; Eriochloa villosa, post-emergence, Postemergence, 125 g ai/ha, visual rating after 13 to 15 days, scale 0 (no effect) to 100 (complete control)): 70%
pest or weed control at 250 g/ha ([10]; Eriochloa villosa, post-emergence, Postemergence, 250 g ai/ha, scale 0 to 100 (0 no effect, 100 complete control), read-out: Plant response rating, Cupgrass, Woolly): 75%
Nutsedge, Yellow plant response rating (0 to 100 scale) [11, 16]: 75
pest or weed control at 31 g/ha ([11]; Cyperus, post-emergence, 31 g ai/ha, postemergence, scale 0 to 100, 0 is no effect, 100 is complete control, read-out: Plant response rating, Nutsedge, Yellow): 75%
pest or weed control at 250 g/ha ([11]; Cyperus, post-emergence, Postemergence, 250 g ai/ha, scale 0 to 100 (0 no effect, 100 complete control), read-out: Plant response rating, Nutsedge, Yellow): 80%
Canarygrass plant response rating (0 to 100 scale) [12, 16]: 10
pest or weed control at 31 g/ha ([12]; Phalaris minor, post-emergence, 360 h, 31 g ai/ha, postemergence, scale 0 to 100, 0 is no effect, 100 is complete control, read-out: Plant response rating, Canarygrass): 0%
pest or weed control at 125 g/ha ([12]; Phalaris minor, post-emergence, 360 h, Postemergence, 125 g ai/ha, visual rating after 13 to 15 days, scale 0 (no effect) to 100 (complete control)): 10%
pest or weed control at 250 g/ha ([12]; Phalaris minor, post-emergence, 360 h, Postemergence, 250 g ai/ha, scale 0 to 100 (0 no effect, 100 complete control), read-out: Plant response rating, Canarygrass): 30%
Chickweed plant response rating (0 to 100 scale) [13, 16]: 100
pest or weed control at 31 g/ha ([13]; Stellaria media, post-emergence, 360 h, 31 g ai/ha, postemergence, scale 0 to 100, 0 is no effect, 100 is complete control, read-out: Plant response rating, Chickweed): 95%
pest or weed control at 125 g/ha ([13]; Stellaria media, post-emergence, 360 h, Postemergence, 125 g ai/ha, visual rating after 13 to 15 days, scale 0 (no effect) to 100 (complete control)): 100%
pest or weed control at 250 g/ha ([13]; Stellaria media, post-emergence, 360 h, Postemergence, 250 g ai/ha, scale 0 to 100 (0 no effect, 100 complete control), read-out: Plant response rating, Chickweed): 100%
Windgrass plant response rating (0 to 100 scale) [14, 16]: 50
pest or weed control at 31 g/ha ([14]; Apera spica-venti, post-emergence, 360 h, 31 g ai/ha, postemergence, scale 0 to 100, 0 is no effect, 100 is complete control, read-out: Plant response rating, Windgrass): 5%
pest or weed control at 250 g/ha ([14]; Apera spica-venti, post-emergence, 360 h, Postemergence, 250 g ai/ha, scale 0 to 100 (0 no effect, 100 complete control), read-out: Plant response rating, Windgrass): 85%
Barley plant response rating (0 to 100 scale) [15, 16]: 0
plant injury at 31 g/ha ([15]; Hordeum vulgare, post-emergence, 31 g ai/ha, postemergence, scale 0 to 100, 0 is no effect, 100 is complete control, read-out: Plant response rating, Barley): 0%
plant injury at 125 g/ha ([15]; Hordeum vulgare, post-emergence, Postemergence, 125 g ai/ha, visual rating after 13 to 15 days, scale 0 (no effect) to 100 (complete control)): 0%
plant injury at 250 g/ha ([15]; Hordeum vulgare, post-emergence, Postemergence, 250 g ai/ha, scale 0 to 100 (0 no effect, 100 complete control), read-out: Plant response rating, Barley): 5%
